Results from patent US6248895A, “Benzofuroxan compound, method of preparation, pharmaceutical composition and method of treatment using the same” (Torrent Pharmaceuticals Ltd., priority 1998, dated 2001).

Experiments:
[1] = test system: thoracic aorta (albino rabbit, helical strips, endothelium removed); assay: In vitro screening of NO donors: relaxation of endothelium-denuded rabbit thoracic aorta strips, before and after GTN-induced tolerance; assay type: cell-based; conditions: relative to GTN; for Mean Relative Potency After Tolerance: after tolerance induced by 440 μM GTN for 90 min
Description: a) In vitro Screening of NO Donors
The method adopted was a modified method of Nishikawa et al (1982). Albino rabbits of either sex were stunned and exsanguinated. Thoracic aorta was quickly removed and cut helically (at an angle of […]) into strips 4-5 mm wide and 25 to 30 mm long, after removal of adventitial connective tissue. The endothelium was rubbed off gently using a cotton swab soaked in Kreb's solution. Two strips were fixed vertically in organ baths containing 20 ml. Kreb's solution maintained at 37° C. and bubbled with oxygen. A resting tension of 4 g was applied and the preparation was allowed to equilibrate for 30 min. Each preparation was exposed to two primer doses of KCl (30 mM). After the contraction reached a maximum, the bath was drained off and replaced with fresh Kreb's solution. Half an hour later, cumulative dose response curve for the test compound was taken on one tissue (test) and for glyceryl trinitrate (GTN) in the other (standard). The dose range used was from 10^-9 M to 10^-3 M with a contact period of 4 min. for each dose.
Tolerance was induced in both the tissues by adding 440 μM of GTN for 90 minutes. During this period the bath solution was changed every 30 min. and 440 μM of GTN was replaced. Later both the tissues were washed thoroughly and the dose response curve (DRC) for both the test and the standard were repeated. The percentage relaxation with individual doses was calculated by taking the maximum relaxations to 10^-4 M papaverine as 100% relaxation. A graph was plotted by taking the percentage relaxation vs the log (M) concentration of the compounds.

[2] = test system: vasopressin induced T-wave elevation; assay: Anti-anginal effect: suppression of vasopressin induced T-wave elevation in anesthetized guinea pigs; assay type: in vivo, guinea pig; conditions: for Selectivity Index A/B (C): ED20 for fall in B.P. (A) / ED50 for T-wave inhibition (B); for Dose required for 50% inhibition of T-wave (ED50) (B): i.v.
Source text: b) In vivo Pharmacological Screening
A modified method of Benedini et al (1995) was adopted for studying the anti-anginal effect of the chosen compounds. Guinea pigs of either sex, weighing approximately 400-600 g were used for this study. Animals were anesthetized with urethane (1.25 g/kg, i.p.) and jugular vein was cannulated for intravenous administration of drugs/vehicle. Mean arterial blood pressure (MABP) was monitored by a cannula inserted into the right carotid artery and connected to a pressure transducer. Standard limb lead II electrocardiogram was recorded continuously. All the recordings were carried out on a MacLab system (AD Instruments, UK).
The ability of the test compounds to suppress the vasopressin induced T-wave elevation was used as the model for studying the anti-anginal effects of the compounds. Guinea pigs were divided into two groups for the purpose of this study, i) control group (pretreated with the vehicle for the compound) and ii) drug treated group.
In this group of animals the solvent used for dissolving the test compound was administered intravenously in a volume of 1 ml/kg. The basal T-wave heights, heart rates and MABP and changes after vehicle administration were noted. Thirty seconds later 1 I.U./ml/kg of vasopressin was administered intravenously. The T-wave heights, heart rates and MABP and their changes after vasopressin administration were also noted. The T-wave elevation (after vasopressin administration), maximum rise in MABP, and changes in heart rate were calculated from the above data and expressed as mean±standard deviation.
The effects of the test compound in suppressing the T-wave elevation caused by vasopressin were evaluated with atleast three dose levels. Groups of 6 guinea pigs were used for each dose. The test compound was injected 30 seconds prior to vasopressin administration. Changes in MABP, heart rate and T-waves were recorded as described for the control group. The percentage inhibition of vasopressin induced T-wave elevation was calculated for each dose taking the T-wave height estimated in control group as 100%. From the dose vs percent inhibition relationship, the dose required for 50% inhibition (ED50) for the T-wave elevation was estimated.
In a separate group of animals the drop in MABP after administration of the test compound (dose range of 0.1-1000 μg/kg, i.v.) was studied. Atleast three animals were used for each dose. Care was taken so that the doses were given only after the MABP had stabilized from the effects of the previous dose. All doses were injected in a final volume of 1 ml/kg. […] From this graph the dose required to produce a 20% fall in MABP (ED20) was calculated. The specificity of the test compound was defined by the selectivity index, which was shown below: [formula]

MABP = assay: Drop in mean arterial blood pressure (MABP) after i.v. administration; assay type: in vivo, guinea pig; conditions: 20% fall in MABP
Description: Guinea pigs of either sex, weighing approximately 400-600 g were used for this study. […] Standard limb lead II electrocardiogram was recorded continuously. All the recordings were carried out on a MacLab system (AD Instruments, UK).
Determination of the Ed20 Values for Drop in Mabp
Atleast three animals were used for each dose. […] All doses were injected in a final volume of 1 ml/kg. […] The specificity of the test compound was defined by the selectivity index, which was shown below: [formula]

[3] = conventional nitrates like GTN; cited from earlier work
[4] = 30 seconds prior to vasopressin 1 I.U./ml/kg

| Compound | Mean Relative Potency After Tolerance [1] | Mean Relative Potency Before Tolerance [1] | Selectivity Index A/B (C) [2] | selectivity index as compared to GTN (in words) [2] | Dose required for 50% inhibition of T-wave (ED50) (B) [2, 4] [mg/kg] | Dose needed for 20% fall in B.P. (ED20) (A) (MABP) [mg/kg] | ED50 ([2]; Cavia porcellus, iv, 30 seconds prior to vasopressin 1 I.U./ml/kg, read-out: Dose required for 50% inhibition of T-wave (ED50) (B)) [mg/kg] | ED20 (MABP; Cavia porcellus, iv, read-out: Dose needed for 20% fall in B.P. (ED20) (A)) [mg/kg] | side effects as a manifestation of hypotensive effect [3] |
| --- | --- | --- | --- | --- | --- | --- | --- | --- | --- |
| 5(6)-(2-nicotinamide ethyloxycarbonyl) benzofuroxan hydrochloride [Compound 1] | 8.4 | 0.2 | 0.517 | high selectivity index as compared to GTN | 0.88642 | 0.45802 | – | – | – |
| CC1(C)OCC(COC(=O)c2ccc3c(c2)no[n+]3[O-])O1 (racemic) [Compound 10, 5(6)-((±)-2,2-dimethyl-1,3-dioxolane-4-methyloxycarbonyl) benzofuroxan] | 10.13 | 0.39 | 0.58 | high selectivity index as compared to GTN | 0.492 | 0.286 | – | – | – |
| O=C(NCCOC(=O)c1ccc2c(c1)no[n+]2[O-])c1ccncc1 [Compound 2, 5(6)-(2-isonicotinamideethyloxycarbonyl)benzofuroxan] | 6.94 | 0.06 | – | – | – | – | – | – | – |
| O=C(OCCN1CCCC1=O)c1ccc2c(c1)no[n+]2[O-] [Compound 3, 5(6)-(2-pyrolidinone ethyloxycarbonyl) benzofuroxan] | 25 | 0.11 | 0.152 | – | 0.67561 | 0.13952 | – | – | – |
| CC(O)COC(=O)c1ccc2c(c1)no[n+]2[O-] (stereo not drawn) [Compound 4, 5(6)-(2-hydroxypropyloxycarbonyl) benzofuroxan] | 11.22 | 0.28 | – | – | – | – | – | – | – |
| O=C(OCCN1CCOCC1)c1ccc2c(c1)no[n+]2[O-] [Compound 5, 5(6)-(2-morpholinoethyloxycarbonyl)benzofuroxan] | 4.12 | 0.18 | – | – | – | – | – | – | – |
| COCCOC(=O)c1ccc2c(c1)no[n+]2[O-] [Compound 6, 5(6)-(2-methyloxyethyloxycarbonyl) benzofuroxan] | 17.02 | 0.97 | 0.67 | high selectivity index as compared to GTN | 0.3379 | 0.22634 | – | – | – |
| O=C(OCC(O)CO)c1ccc2c(c1)no[n+]2[O-] (stereo not drawn) [Compound 7, 5(6)-(2,3-dihydroxypropyloxycarbonyl) benzofuroxan] | 3.49 | 0.17 | – | – | – | – | – | – | – |
| CCOCCOC(=O)c1ccc2c(c1)no[n+]2[O-] [Compound 8, 5(6)-(2-ethoxyethyloxycarbonyl) benzofuroxan] | 11.9 | 0.2 | – | – | – | – | – | – | – |
| O=C(OCc1cccnc1)c1ccc2c(c1)no[n+]2[O-] [Compound 9, 5(6)-(3-pyridinemethoxycarbonyl) benzofuroxan] | 8.05 | 0.53 | 0.61 | high selectivity index as compared to GTN | 0.37285 | 0.22716 | – | – | – |
| O=C(OC1COC2C(O[N+](=O)[O-])COC12)c1ccc2c(c1)no[n+]2[O-] (stereo not drawn) [Compound 11, 5(6)-(isosorbide mononitrateoxy carbonyl) benzofuroxan] | 7 | 0.25 | – | – | – | – | – | – | – |
| O=[N+]([O-])OCC(CO[N+](=O)[O-])O[N+](=O)[O-] [GTN, glyceryl trinitrate, reference compound] | – | – | ~0.017 | – | – | – | 0.474 | 0.00822 | tachycardia, retrosternal discomfort, palpitations, collapse, syncope and postural hypotension |
